pEC50: −log10 of the molar value.
How the values were obtained:
CEM-SS [1] = test: Effective concentration required to inhibit the replication of HIV-1 in CEMSS human T4 lymphoblastoid cell lines; assay type: functional, cell-based
MT2 [2] = test: Cytotoxic concentration required to inhibit the replication of HIV-1 in MT-2 human T4 lymphoblastoid cell lines; assay type: functional
MT4 [3] = test: Effective concentration required to inhibit the replication of HIV-1 in MT-4 human T4 lymphoblastoid cell lines; assay type: functional, cell-based
MT2 [4] = test: Effective concentration required to inhibit the replication of HIV-1 in MT-2 human T4 lymphoblastoid cell lines; assay type: functional, cell-based
MT4 [5] = test: Cytotoxic concentration required to inhibit the replication of HIV-1 in MT-4 human T4 lymphoblastoid cell lines; assay type: functional
CEM-SS [6] = test: Cytotoxic concentration required to inhibit the replication of HIV-1 in CEM-SS human T4 lymphoblastoid cell lines; assay type: functional

pEC50 (CEM-SS [1])	pEC50 (MT2 [4])	Compound	CC50 (MT2 [2]) [µM]	pEC50 (MT4 [3])	CC50 (MT4 [5]) [µM]	CC50 (CEM-SS [6]) [µM]
5.92	5.19	CC(C)(C)C(=O)SCCOP(=O)(OCC=C=Cn1cnc2c(N)ncnc21)OCCSC(=O)C(C)(C)C	28	5.05	> 10	> 10
4.25	< 4.00	Nc1ncnc2c1ncn2C=C=CCO (racemic)	> 100	< 4.00	> 100	> 100
